Test results published in US4596828A, “[(2-hydroxy-5-alkoxyphenyl)methylthio]phenylmethanol and derivatives thereof useful as anti-inflammatory agents” (Merck & Co., Inc., priority 1985, dated 1986).

System: inflammatory responses elicited by topically applied phorbol myristate acetate (PMA) or arachidonic acid (AA) in mouse ears
Assay: Topical mouse ear assay (TME): edema measured by wet weight after topical PMA or AA
Type: in vivo
Conditions: mean, N=5 mice/group
Protocol: The topical mouse ear assay (TME) was used to evaluate the novel compounds of the present invention for its effect on inflammatory responses elicited by topically applied phorbol myristate acetate (PMA) or topically applied archidonic acid (AA).
Method: The right ears of mice (5 mice per group) were treated topically with either […] or 1000 μg AA alone or with the test compound in 25 μl of vehicle. The vehicle was water/pyridine/acetone (1:2:97). A control group of mice received the vehicle only. The mice were allowed food and water ad libitum during the treatment period; 2 hours for AA and 4 hours for PMA. The mice were sacrificed by cervical dislocation and a 6 mm diameter disc of tissue punched from both the treated and untreated ears. The tissue biopsies were immediately weighed and the weight increase of the treated ear relative to the weight of the untreated ear determined.
All of the data are expressed as the mean ±SEM, N=5 mice/group.

COc1ccc2c(c1)c(CC(=O)O)c(C)n2C(=O)c1ccc(Cl)cc1 [Indomethacin, reference compound]
Edema (% inhibition) (dosage 150 μg): 51%

C[C@@H]1C[C@H]2[C@@H]3CCC4=CC(=O)C=C[C@]4(C)[C@@]3(F)[C@@H](O)C[C@]2(C)[C@@]1(O)C(=O)CO [Dexamethasone, reference compound]
Edema (% inhibition) (dosage 5 μg): 60%

COc1ccc(O)c(CSc2ccccc2CO)c1 [Compound A, 2-[2-(Hydroxymethyl)phenylthiomethyl]-4-methoxyphenol]
Edema (% inhibition) (dosage 30 μg): 12% | Edema (% inhibition) (dosage 50 μg): 16% | Edema (% inhibition) (dosage 200 μg): 55% | Edema (% inhibition) (dosage 300 μg): 63%
